According to patent EP1857440A1, “Novel compounds, isomer thereof, or pharmaceutically acceptable salts thereof as vanilloid receptor antagonist; and pharmaceutical compositions containing the same” (Amorepacific Corporation, priority 2006, dated 2007):

What was measured:
[1] = biological target: T1, vanilloid receptor (Rattus norvegicus, UniProt O35433); experiment: 45Ca influx test (calcium uptake) in primary cultured neonatal rat DRG neurons, capsaicin-stimulated; assay type: cell-based, SD rats; settings: capsaicin 0.5 µM, 45Ca 10 µCi/ml, 10 mins at room temperature, read-out: Antagonist Calcium Uptake Test (IC50)
T1 construct: DRG nerve cells from the primary culture of 2 days were equilibrated by washing 4 times; endogenous in cells; host or cells: primary culture of dorsal root ganglion (DRG) neurons from neonatal SD rats
T1 sequence (O35433 whole entry): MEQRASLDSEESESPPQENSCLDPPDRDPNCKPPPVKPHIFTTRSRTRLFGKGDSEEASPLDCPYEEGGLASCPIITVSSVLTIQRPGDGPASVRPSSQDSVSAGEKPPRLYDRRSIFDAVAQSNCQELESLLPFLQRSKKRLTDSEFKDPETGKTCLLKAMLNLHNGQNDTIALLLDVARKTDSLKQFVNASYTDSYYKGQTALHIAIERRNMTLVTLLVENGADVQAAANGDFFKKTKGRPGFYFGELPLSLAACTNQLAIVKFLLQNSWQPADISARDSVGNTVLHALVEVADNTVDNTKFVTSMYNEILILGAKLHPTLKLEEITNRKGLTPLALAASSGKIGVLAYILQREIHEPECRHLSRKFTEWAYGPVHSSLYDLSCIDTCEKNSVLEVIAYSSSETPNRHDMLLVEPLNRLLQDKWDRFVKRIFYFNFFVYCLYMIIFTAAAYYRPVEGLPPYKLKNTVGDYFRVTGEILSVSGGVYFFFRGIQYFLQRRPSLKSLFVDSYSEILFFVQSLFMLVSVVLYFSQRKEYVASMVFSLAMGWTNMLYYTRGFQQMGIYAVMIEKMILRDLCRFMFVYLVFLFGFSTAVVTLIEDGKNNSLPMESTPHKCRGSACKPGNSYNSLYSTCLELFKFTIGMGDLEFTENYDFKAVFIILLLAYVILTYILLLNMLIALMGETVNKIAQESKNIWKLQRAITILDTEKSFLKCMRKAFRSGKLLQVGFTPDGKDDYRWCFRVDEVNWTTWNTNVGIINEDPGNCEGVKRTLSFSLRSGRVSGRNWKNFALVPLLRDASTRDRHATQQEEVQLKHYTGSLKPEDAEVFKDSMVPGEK
Procedure: 1) Separation of spinal dorsal root ganglia (DRG) in newborn rats and primary culture thereof
Neonatal (2-3 day old or younger than 2-3 day old) SD rats were put in ice for 5 minutes to anesthetize and disinfected with 70% ethanol. DRG of all part of spinal cord were dissected (Wood et al., 1988, J. Neurosci. 8, pp3208-3220) and collected in DME/F12 medium to which 1.2g/l sodium bicarbonate, 50mg/l gentamycin were added. The DRG were incubated sequentially at 37°C for 30 min in 200 U/ml collagenase and 2.5mg/ml trypsin, separately. The gangiia were washed twice with DME/F12 medium supplemented with 10% horse serum, triturated through a fire-polished Pasteur pipette, filtered through Nitex 80 membrane to obtain single cell suspension and the suspension was washed once more. This was subjected to centrifugation, then resuspended in cell culture medium at certain level of cell density. As the cell culture medium, DME/F12 medium supplemented with 10% horse serum was diluted with identical medium conditioned by C6 glioma cells 2 days on a confluent monolayer (1:1), and NGF (Nerve Growth Factor) was added to adjust 200ng/ml as final concentration. After the cells were grown 2 days in medium where cytosine arabinoside (Ara-C, 100 µM) was added to kill dividing nonneuronal cells, medium was changed to one without Ara-C. The resuspended cells were plated at a density of 1500-2000 neurons/well onto Terasaki plates previously coated with 10 µg/ml poly-D-ornithine.
2) ^45 Ca influx experiments
DRG nerve cells from the primary culture of 2 days were equilibrated by washing 4 times with HEPES (10mM, pH 7.4)-buffered Ca ^2+, Mg^2+-free HBSS (H-HBSS). The solution in each well was removed from the individual well. Medium containing the test compound plus capsaicin (final concentration 0.5 µM) and ^45Ca (final concentration 10 µCi/ml) in H-HBSS was added to each well and incubated at room temperature for 10 mins. Terasaki plates were washed five times with H-HBSS and dried at room temperature. To each well, 0.3% SDS (10 µl) was added to elute ^45Ca. After the addition of scintillation cocktail of into each well, the amount of ^45Ca influx into neuron was measured by counting radioactivity. […] [Table 1] Results of Calcium Influx Test

[2] = test system: Male ICR mice; experiment: Analgesic activity test: mouse writhing test induced with phenyl-p-quinone; assay type: in vivo; settings: ip, 0.5 h, 30 min before phenyl-p-quinone, read-out: Analgesic effect (%Inhibition); for inhibition in vivo at 1 mg/kg: Dose 1 mg/kg intraperitoneally
Procedure: 2. Analgesic activity test: Mouse writhing test by inducing with phenyl-p-quinone
Male ICR mice (mean body weight 25g) were maintained in a controlled lighting environment (12 h on/ 12 h off) for experiment. Animals received an intraperitoneal injection of 0.3ml of the chemical irritant phenyl-p-quinone (dissolved in saline containing 5% ethanol to be a dose of 4.5mg/kg) and 6 mins later, the number of abdominal constrictions was counted in the subsequent 6 mins period. Animals (10 animals/group) received 0.2ml of test compounds solution in vehicle of ethanol/Tween 80/saline (10/10/80) intraperitoneally 30 min before the injection of phenyl-p-quinone. A reduction in the number of writhes responding to the test drug compound relative to the number responding in saline control group was considered to be indicative of an analgesic effect. Analgesic effect was calculated by % inhibition equation (% inhibition=(C-T)/C x 100), wherein C and T represent the number of writhes in control and compound-treated group, respectively (Table 2).

IC50 [1]	Structure (SMILES)	inhibition in vivo at 10 mg/kg ([2]; Dose 10 mg/kg intraperitoneally)	inhibition in vivo at 1 mg/kg [2]
1300 nM	CS(=O)(=O)Nc1ccc(CNC(=O)COc2ccc(C(F)(F)F)cc2)cc1F [Example 24, N-(3-Fluoro-4-methanesulfonylamino-benzyl)-2-(4-trifluoromethylphenoxy)-acetamide]	28%	
69 nM	CC(C)c1ccc(OCC(=O)NCc2ccc(NS(C)(=O)=O)c(F)c2)cc1 [Example 52, N-(3-Fluoro-4-methanesulfonylaminobenzyl)-2-(4-isopropylphenoxy)acetamide]		49%
74 nM	CCC(C)c1ccc(OCC(=O)NCc2ccc(NS(C)(=O)=O)c(F)c2)cc1 (stereo not drawn) [Example 53, N-(3-Fluoro-4-methanesulfonylaminobenzyl)-2-(4-sec-butylphenoxy)acetamide]		49%
